# Read-outs that look alike come from different tables or passages of the source.
# Experiments:
# Cryptosporidium parvum [1] = assay: Cryptosporidium parvum in vitro growth inhibition; type: cell-based; conditions: read-out: Cryptosporidium parvum EC50; 50% reduction in growth
# Toxoplasma gondii [2] = assay: T. gondii mouse efficacy model; type: in vivo; conditions: QD
# hERG [3] = biological target: T1, hERG (Homo sapiens, UniProt Q12809); assay: hERG thallium flux assay
# [4] = type: in vivo; conditions: mouse pregnancy safety dose 50 mg/kg
# hERG [5] = biological target: T1, hERG; assay: hERG automated patch clamp; type: cell-based; conditions: read-out: hERG Qpatch IC50
# Cryptosporidium parvum [6] = assay: C. parvum; type: in vivo, mouse; conditions: >2 log unit reduction in infection
# Human PKD3 = biological target: T2, Human PKD3 (Homo sapiens, UniProt O94806); assay: Human PKD3 kinase inhibition; type: biochemical; conditions: read-out: Human PKD3 IC50
# T2 sequence (O94806 1-890): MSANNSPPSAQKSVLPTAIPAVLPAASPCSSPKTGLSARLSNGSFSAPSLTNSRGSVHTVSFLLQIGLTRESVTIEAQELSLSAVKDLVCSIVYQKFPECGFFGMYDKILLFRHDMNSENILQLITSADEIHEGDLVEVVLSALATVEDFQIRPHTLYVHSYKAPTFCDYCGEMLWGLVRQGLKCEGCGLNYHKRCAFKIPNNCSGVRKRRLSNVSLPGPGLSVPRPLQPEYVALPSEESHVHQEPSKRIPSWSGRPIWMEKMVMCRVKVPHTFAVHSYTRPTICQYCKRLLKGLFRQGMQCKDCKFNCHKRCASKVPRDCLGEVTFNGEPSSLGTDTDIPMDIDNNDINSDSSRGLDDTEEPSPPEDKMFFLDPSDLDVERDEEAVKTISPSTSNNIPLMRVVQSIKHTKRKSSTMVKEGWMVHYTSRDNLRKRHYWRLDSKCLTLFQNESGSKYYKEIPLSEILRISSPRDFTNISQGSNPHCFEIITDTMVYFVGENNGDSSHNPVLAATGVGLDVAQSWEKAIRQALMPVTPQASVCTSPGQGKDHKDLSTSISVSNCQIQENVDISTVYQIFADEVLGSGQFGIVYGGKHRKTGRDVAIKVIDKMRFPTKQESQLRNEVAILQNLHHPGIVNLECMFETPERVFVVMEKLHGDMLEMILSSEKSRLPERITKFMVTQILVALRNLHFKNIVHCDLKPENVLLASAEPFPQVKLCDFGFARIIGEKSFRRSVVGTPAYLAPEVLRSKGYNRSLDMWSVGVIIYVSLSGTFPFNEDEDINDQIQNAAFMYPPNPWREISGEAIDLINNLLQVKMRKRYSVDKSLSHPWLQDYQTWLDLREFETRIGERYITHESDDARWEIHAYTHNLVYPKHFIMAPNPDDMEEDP
# Toxoplasma gondii [7] = assay: Toxoplasma gondii in vitro growth inhibition; type: cell-based; conditions: read-out: Toxoplasma gondii EC50; 50% reduction in growth
# TgCDPK1 = biological target: T3, TgCDPK1 (Toxoplasma gondii, UniProt Q9BJF5); type: biochemical; conditions: read-out: TgCDPK1 IC50
# T3 sequence (Q9BJF5 1-507): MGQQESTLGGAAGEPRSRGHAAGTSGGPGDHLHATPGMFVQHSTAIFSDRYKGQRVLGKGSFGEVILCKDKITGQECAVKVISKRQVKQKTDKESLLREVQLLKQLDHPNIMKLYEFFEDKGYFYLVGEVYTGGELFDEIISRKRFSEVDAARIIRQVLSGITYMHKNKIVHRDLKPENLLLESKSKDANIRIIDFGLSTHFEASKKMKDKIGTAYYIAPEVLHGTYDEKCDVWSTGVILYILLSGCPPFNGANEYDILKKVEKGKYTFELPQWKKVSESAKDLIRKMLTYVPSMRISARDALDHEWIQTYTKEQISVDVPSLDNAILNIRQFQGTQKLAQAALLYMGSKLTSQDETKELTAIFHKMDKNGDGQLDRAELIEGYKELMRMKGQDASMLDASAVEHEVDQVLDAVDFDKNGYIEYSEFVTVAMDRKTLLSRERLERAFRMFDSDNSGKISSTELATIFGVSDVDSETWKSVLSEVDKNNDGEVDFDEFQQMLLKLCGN
# CpCDPK1 = biological target: T4, CpCDPK1 (Cryptosporidium parvum, UniProt A3FQ16); type: biochemical; conditions: read-out: CpCDPK1 IC50
# T4 sequence (A3FQ16 1-538): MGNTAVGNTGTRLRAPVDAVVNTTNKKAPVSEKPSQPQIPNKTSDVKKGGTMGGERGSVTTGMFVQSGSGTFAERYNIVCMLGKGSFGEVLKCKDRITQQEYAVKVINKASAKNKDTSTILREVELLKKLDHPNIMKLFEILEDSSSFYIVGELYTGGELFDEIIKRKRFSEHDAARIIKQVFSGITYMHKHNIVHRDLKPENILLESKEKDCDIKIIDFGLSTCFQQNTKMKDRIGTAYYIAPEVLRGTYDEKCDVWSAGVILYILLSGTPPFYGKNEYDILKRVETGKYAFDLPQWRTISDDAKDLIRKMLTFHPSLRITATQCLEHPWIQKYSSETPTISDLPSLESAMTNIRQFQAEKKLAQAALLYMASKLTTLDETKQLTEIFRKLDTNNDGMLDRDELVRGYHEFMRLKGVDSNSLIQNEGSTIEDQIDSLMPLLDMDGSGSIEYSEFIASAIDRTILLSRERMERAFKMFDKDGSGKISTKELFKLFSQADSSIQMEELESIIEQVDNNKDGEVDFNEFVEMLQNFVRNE
# Cryptosporidium parvum [8] = conditions: ref Arnold et al., cited from earlier work
# P-glycoprotein (P-gp) = conditions: compared with efficacious compounds such as BKI-1369; ref Arnold et al., 2019; cited from earlier work
# [9] = cited from earlier work
# [10] = cited from earlier work; remark: listed apart in the source
# [11] = type: in vivo
# [12] = Plasma exposure after oral dosing in mice; type: in vivo, mouse; conditions: at the toxic dose of the same table row
# [13] = QD in mice
# [14] = Toxicity and safety in calves; type: in vivo, calf; conditions: 3X maximal therapeutic doses; unpublished data
# [15] = mice, 30 mg/kg oral dose, ref Hulverson et al., 2017a, 30 mg/kg
# [16] = mice, 30 mg/kg oral dose, ref Hulverson et al., 2017a, listed as 1369, 30 mg/kg
# T1 sequence (Q12809 whole entry): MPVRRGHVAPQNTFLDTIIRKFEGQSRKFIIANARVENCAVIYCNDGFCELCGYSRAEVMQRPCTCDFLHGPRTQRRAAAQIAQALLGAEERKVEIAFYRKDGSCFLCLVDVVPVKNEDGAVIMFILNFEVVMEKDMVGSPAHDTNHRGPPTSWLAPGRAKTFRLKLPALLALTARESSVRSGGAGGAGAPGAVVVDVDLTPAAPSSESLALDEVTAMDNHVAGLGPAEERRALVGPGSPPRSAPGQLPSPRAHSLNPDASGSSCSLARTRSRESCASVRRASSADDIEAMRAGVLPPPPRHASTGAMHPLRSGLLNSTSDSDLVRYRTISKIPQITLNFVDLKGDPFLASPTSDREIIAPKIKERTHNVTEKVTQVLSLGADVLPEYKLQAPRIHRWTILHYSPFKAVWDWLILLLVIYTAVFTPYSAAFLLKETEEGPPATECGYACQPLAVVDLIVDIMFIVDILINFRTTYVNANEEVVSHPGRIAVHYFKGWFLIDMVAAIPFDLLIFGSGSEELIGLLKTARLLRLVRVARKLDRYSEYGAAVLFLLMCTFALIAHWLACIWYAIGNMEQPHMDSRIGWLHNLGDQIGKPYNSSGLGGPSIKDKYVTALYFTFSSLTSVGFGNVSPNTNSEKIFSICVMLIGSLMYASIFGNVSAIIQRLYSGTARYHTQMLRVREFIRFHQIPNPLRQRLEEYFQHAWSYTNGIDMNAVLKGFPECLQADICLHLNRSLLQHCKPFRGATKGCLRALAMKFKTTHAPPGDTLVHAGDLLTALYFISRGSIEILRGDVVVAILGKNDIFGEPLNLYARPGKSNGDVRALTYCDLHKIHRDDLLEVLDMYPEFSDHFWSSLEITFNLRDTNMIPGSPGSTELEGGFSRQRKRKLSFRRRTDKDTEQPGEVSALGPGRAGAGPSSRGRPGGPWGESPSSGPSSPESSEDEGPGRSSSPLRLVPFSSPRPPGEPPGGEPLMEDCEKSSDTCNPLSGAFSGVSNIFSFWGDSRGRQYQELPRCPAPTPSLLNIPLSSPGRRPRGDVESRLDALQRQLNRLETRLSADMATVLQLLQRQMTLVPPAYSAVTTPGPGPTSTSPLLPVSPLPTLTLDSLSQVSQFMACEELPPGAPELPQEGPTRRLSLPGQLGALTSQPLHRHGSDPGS
smiles,measurement,setting,value
CCOc1ccc2cc(-c3nn(C(C)(C)C)c(N)c3C(N)=O)cnc2c1 [BKI-1517],EC50,Cryptosporidium parvum [1],649 nM
same,T. gondii efficacious dose in mice,Toxoplasma gondii [2]; >2 log unit reduction in infection,60 mg/kg QD
same,T. gondii efficacious dose in mice,Toxoplasma gondii [2]; ≥2 log reduction in infection,60 mg/kg QD
same,IC50,hERG [3],> 30000 nM
same,Fertility (pregnant dams),[4],2 of 7
same,Total pups born,[4],0
same,IC50,hERG [5],> 16700 nM
same,C. parvum efficacious dose in mice,Cryptosporidium parvum [6]; BID,30 mg/kg BID
same,IC50,Human PKD3,1110 nM
same,EC50,Toxoplasma gondii [7],257 nM
CCOc1ccc2cc(-c3nn(C4CCOCC4)c(N)c3C(N)=O)ccc2n1 [BKI-1841],EC50,Cryptosporidium parvum [1],1210 nM
same,IC50,TgCDPK1,30.1 nM
same,IC50,CpCDPK1,2.8 nM
same,EC50,Toxoplasma gondii [7],130 nM
CCOc1ccc2cc(-c3nn(CC4CCNCC4)c4ncnc(N)c34)ccc2n1 [BKI-1318],Efficacy against Cryptosporidium when the P-gp pumps were inhibited,"Cryptosporidium parvum [8]; P-gp pumps inhibited, 2019",greatly improved
same,Efficacy against Cryptosporidium,Cryptosporidium parvum [8]; 2019,failed to be efficacious
same,Efflux ratio,P-glycoprotein (P-gp),much higher efflux ratio
CCOc1ccc2cc(-c3nn(CC4CCN(C)CC4)c4ncnc(N)c34)ccc2n1 [BKI-1369],EC50,Cryptosporidium parvum [1],2500 nM
same,Thallium flux IC50 relative to that of BKI-1294,hERG [3]; higher IC50 than BKI-1294,> 10 fold
same,IC50,TgCDPK1,6.1 nM
same,"Observed maximum gastrointestinal tissue exposure after single dose, ascending colon",[9]; [15],23 µM
same,"Observed maximum gastrointestinal tissue exposure after single dose, cecum",[9]; [15],20 µM
same,"Observed maximum gastrointestinal tissue exposure after single dose, duodenum",[9]; [15],> 76 µM
same,"Observed maximum gastrointestinal tissue exposure after single dose, jejunum/ileum",[9]; [15],39 µM
same,"Observed maximum gastrointestinal tissue exposure after single dose, cecum",[9]; [16],20 ± 6 µM
same,"Observed maximum gastrointestinal tissue exposure after single dose, duodenum",[9]; [16],76 ± 41 µM
same,Toxicity on repeated dosing,"[10]; 50 mg/kg for 5 days, ref Hulverson et al., 2017a",multiple signs of toxicity
same,Daily dose with no signs of GI side effects,"[10]; mouse, in vivo",up to 150 mg/kg
same,Dog CV safety: ↓dP/dt (plasma conc.),"[11]; anesthetized dog, decreased cardiac contractility",9.3 µM
same,Dog CV safety: ↑SVR (plasma conc.),"[11]; anesthetized dog, increased systemic vascular resistance",129 µM
same,Dog CV safety: complete CV collapse (plasma conc.),"[11]; dog, in vivo",> 50 µM
same,Dog CV safety: ↑QTcV (plasma conc.),"[11]; dog, in vivo",~1.7 µM
same,Dog CV safety: ↓CO (plasma conc.),"[11]; dog, in vivo",9.3 µM
same,Dog CV safety: ↓HR (plasma conc.),"[11]; dog, in vivo",50 µM
same,IC50,hERG [5],~1000 nM
same,IC50,hERG [5]; listed as 1369,970 nM
same,Observed maximum plasma exposure at toxic dose,[12],8.3 ± 0.2 µM
same,C. parvum efficacious dose in mice,Cryptosporidium parvum [6]; QD,30 mg/kg QD
same,Dose at which toxicity was observed,[13],300 (QD in mice) mg/kg
same,IC50,CpCDPK1,0.9 nM
same,Cardiovascular effects in calves,[14],have not been detected
CCOc1ccc2cc(-c3nn(CC4CCN(C)CC4)c4ncnc(N)c34)ccc2c1 [BKI-1294],Efficacy against Cryptosporidium infection in mice,Cryptosporidium parvum [8]; 2017,significantly reduced infection
same,EC50,Cryptosporidium parvum [1],2220 nM
same,IC50,hERG [3],790 nM
same,hERG Thallium Flux IC50,hERG [3],submicromolar
same,Levels reached in tissues of the GI tract,"[9]; infected mice, ref Arnold et al., 2017",reached high levels in all tissues of the GI tract
same,C. parvum efficacious dose in mice,Cryptosporidium parvum [6]; QD,100 mg/kg QD
same,EC50,Toxoplasma gondii [7],137 nM

# Reference: article PMC8565993 (International journal for parasitology, 2020)
